By IC50 is commonly meant the concentration at which inhibition is half-maximal.

What all share (format): functional
In experiment [1] the target is Calcium-dependent protein kinase 1 (Plasmodium falciparum, UniProt P62344). Description: MMV: CDPK1 Protein kinase inhibition assay using recombinant PfCDPK1, syntide 2 peptide substrate, ATP and KinaseGlo to measure % inhibition at 1 uM MMV box compound.
Experiment [2] addresses T1, Mitogen-activated protein kinase (Plasmodium falciparum, UniProt Q25917).
T1 sequence (Q25917 whole entry): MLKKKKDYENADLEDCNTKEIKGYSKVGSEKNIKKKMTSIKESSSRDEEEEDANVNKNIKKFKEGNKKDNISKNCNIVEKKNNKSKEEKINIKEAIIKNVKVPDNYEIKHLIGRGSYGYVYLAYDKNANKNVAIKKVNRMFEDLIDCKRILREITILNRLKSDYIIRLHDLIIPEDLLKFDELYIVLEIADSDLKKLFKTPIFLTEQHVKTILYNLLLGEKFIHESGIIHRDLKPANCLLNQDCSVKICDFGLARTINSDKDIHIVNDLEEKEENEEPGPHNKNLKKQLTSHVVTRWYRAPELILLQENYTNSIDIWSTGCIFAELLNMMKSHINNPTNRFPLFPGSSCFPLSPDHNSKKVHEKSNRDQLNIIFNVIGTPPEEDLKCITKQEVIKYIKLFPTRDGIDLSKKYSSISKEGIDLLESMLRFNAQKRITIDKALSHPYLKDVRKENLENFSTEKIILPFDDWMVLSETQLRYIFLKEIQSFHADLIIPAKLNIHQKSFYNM
The experiment in a line: Final concentrations were 1 uM ATP, 0.5 mM DTT, 1 mM MgCl2, 0.5 mg/mL BSA, and 10 ug/ml MAP2 in a buffer of 50 mM HEPES (pH 7.0). 0.5 mg/mL histone III-S served as the substrate (13); 100 uM AMP-PNP, an ATP analog, was used as a control inhibitor. Incubation time was 4 hours.

In experiment [3] the target is T2, Cdk-related protein kinase 6 (Plasmodium falciparum, UniProt O77239).
T2 sequence (O77239 whole entry): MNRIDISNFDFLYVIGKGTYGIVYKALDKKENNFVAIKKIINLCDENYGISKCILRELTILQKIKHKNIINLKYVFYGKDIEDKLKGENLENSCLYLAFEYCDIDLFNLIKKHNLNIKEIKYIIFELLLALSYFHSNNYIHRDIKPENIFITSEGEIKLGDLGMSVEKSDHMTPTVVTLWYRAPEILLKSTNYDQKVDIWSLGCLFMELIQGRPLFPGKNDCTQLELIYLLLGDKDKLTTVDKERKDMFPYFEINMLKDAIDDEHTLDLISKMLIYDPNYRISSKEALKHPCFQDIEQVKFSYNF
Description: Final concentrations were 1.5 uM ATP, 5 mM MnCl2, and 15 ug/ml PK6 in a buffer of 100 mM Tris-HCl (pH 7.5). 50 ug/mL MBP was provided as the substrate; 10 uM staurosporine was used as a control inhibitor. Incubation time was 3 hours and 40 minutes.The catalytic activity of each kinase was considered proportional to ATP consumed, as determined from measurements of residual [ATP] with the luciferase-based reagent Kinase-Glo (Promega) following incubation. Luminescence (proportional to residual [ATP]) was measured on the plate readers FLx800 (BioTek Instruments, Winooski, VT, USA) and MicroBeta2. For orientation: Kinase-Glo reads ATP consumption through a luciferase reaction.

Another experiment deals with T3, Proline--tRNA ligase (Plasmodium falciparum (isolate 3D7), UniProt Q8I5R7).
T3 sequence (Q8I5R7 whole entry): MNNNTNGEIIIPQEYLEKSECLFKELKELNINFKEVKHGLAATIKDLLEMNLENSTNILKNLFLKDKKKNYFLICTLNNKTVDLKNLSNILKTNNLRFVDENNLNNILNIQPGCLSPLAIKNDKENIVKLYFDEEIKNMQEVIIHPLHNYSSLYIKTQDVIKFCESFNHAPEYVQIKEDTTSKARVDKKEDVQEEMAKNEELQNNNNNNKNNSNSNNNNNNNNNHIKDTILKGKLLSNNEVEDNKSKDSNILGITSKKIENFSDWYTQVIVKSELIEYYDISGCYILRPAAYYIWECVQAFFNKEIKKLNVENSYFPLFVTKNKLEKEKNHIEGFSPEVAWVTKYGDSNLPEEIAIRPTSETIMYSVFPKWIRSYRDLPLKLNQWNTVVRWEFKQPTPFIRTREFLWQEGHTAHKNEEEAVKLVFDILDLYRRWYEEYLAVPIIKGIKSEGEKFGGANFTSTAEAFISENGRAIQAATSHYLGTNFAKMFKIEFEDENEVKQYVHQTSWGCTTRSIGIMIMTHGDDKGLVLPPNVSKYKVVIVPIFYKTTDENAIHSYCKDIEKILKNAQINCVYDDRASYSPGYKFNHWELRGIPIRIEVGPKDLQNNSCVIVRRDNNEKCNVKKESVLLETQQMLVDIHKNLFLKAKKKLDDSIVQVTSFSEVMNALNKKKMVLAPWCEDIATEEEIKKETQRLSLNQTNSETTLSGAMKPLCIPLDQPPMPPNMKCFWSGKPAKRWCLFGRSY
Description: MMV: ProRS recombinant Plasmodium falciparum Prolyl-tRNA-synthetase, assay with yeast tRNA, ATP, and proline and 3 uM MMV malaria box compound, assay read out with kinase glo as % inhibition.

Experiment [4] has as its target T4, Calcium-dependent protein kinase 4 (Plasmodium falciparum (isolate 3D7), UniProt Q8IBS5).
T4 sequence (Q8IBS5 whole entry): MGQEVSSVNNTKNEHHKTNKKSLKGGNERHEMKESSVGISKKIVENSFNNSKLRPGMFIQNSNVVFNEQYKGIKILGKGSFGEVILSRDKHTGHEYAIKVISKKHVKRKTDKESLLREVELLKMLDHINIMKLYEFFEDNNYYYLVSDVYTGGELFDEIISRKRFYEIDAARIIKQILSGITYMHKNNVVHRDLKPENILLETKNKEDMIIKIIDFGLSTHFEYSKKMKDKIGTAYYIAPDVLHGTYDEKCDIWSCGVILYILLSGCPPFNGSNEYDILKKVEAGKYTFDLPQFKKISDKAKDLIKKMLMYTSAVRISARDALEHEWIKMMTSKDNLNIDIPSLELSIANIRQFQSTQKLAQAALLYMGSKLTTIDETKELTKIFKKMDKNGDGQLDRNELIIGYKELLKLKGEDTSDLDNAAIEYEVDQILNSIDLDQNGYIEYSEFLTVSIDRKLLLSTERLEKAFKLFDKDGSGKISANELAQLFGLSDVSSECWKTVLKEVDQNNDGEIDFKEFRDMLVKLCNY
The experiment in a line: MMV: CDPK4 Protein kinase inhibition assay using recombinant PfCDPK4, syntide2 peptide substrate, ATP and KinaseGlo to measure % inhibition at 1 uM MMV box compound.

The next experiment has as its target Lysine--tRNA ligase (Plasmodium falciparum (isolate 3D7), UniProt Q8IDJ8). Description: MMV: KRS recombinant Plasmodium falciparum Lysyl-tRNA-synthetase, assay with yeast tRNA, ATP, and lysine and 3 uM MMV malaria box compound, assay read out with kinase glo as % inhibition.
Experiment [5] concerns the target T5, Putative uncharacterized protein pk7 (Plasmodium falciparum, UniProt O96214).
T5 sequence (O96214 whole entry): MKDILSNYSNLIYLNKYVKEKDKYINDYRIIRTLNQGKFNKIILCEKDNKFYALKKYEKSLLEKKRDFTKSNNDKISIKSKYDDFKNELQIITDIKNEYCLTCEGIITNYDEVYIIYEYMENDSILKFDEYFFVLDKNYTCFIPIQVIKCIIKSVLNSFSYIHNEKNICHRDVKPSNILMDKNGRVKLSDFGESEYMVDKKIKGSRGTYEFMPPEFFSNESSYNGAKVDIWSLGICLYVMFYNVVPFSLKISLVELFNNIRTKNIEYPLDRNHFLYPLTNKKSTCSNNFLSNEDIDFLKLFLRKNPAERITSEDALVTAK
The experiment in a line: Final concentrations were 1 uM ATP, 2 mM DTT, 20 mM MgCl2, 2 mM MnCl2, 0.01% BSA, and 6 ug/ml PK7, in a buffer of 20 mM Tris-HCl (pH 7.5). The enzyme itself was the only substrate present (since autophosphorylation occurs); 100 uM 1NA-PP1 was used as a control inhibitor. Incubation time was 3 hours.

Chain of Lysine--tRNA ligase (Q8IDJ8 whole entry): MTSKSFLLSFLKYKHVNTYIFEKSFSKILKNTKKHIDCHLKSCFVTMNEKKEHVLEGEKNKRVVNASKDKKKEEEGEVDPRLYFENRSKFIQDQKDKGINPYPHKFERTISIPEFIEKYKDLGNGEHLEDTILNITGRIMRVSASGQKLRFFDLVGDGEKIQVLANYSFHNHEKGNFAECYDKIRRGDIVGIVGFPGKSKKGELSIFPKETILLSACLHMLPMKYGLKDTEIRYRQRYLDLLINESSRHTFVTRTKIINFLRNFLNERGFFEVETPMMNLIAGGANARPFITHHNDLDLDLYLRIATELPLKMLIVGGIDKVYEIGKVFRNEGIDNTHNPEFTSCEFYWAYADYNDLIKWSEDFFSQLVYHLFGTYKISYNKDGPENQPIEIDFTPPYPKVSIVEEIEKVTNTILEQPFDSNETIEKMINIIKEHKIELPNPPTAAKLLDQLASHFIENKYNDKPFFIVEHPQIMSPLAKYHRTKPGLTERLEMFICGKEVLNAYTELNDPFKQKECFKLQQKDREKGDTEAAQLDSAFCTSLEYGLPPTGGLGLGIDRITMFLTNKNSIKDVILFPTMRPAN
Chain of Calcium-dependent protein kinase 1 (P62344 whole entry): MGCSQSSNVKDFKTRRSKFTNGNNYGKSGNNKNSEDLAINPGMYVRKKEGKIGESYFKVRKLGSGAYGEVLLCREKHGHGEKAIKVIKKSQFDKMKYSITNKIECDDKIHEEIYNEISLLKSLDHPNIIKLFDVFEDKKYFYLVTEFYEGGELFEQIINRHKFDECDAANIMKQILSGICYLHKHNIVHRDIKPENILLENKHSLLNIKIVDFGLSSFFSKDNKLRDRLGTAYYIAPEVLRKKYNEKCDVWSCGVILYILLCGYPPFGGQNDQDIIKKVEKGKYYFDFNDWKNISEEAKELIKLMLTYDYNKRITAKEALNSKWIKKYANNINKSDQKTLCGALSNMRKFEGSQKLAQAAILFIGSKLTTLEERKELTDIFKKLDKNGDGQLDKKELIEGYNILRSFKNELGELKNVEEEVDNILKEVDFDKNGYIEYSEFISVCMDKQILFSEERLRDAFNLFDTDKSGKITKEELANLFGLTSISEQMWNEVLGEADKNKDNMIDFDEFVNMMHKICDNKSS

Take `CCOC(=O)C1=C(C)N=c2sc(=Cc3ccccc3O)c(=O)n2C1c1ccc(OC)c2ccccc12` (stereo not drawn): the IC50 was more than 1 µM in experiment [1]; more than 1 µM in experiment [2]; more than 1 µM in experiment [3]; more than 2.5 µM at Proline--tRNA ligase; more than 1 µM in experiment [4]; more than 2.5 µM on Lysine--tRNA ligase. For the same compound, the IC50 in experiment [5] was more than 1 µM.

As to `O=c1cc(NC2CCN(CCCc3ccccc3)CC2)c2cc(Cl)ccc2o1`, the IC50 in experiment [1] is more than 1 µM; in experiment [2], more than 1 µM; in experiment [3], more than 1 µM; on Proline--tRNA ligase, more than 2.5 µM; in experiment [4], more than 1 µM; on Lysine--tRNA ligase it was more than 2.5 µM. The same compound gave an IC50 in experiment [5] of more than 1 µM.

Turning to `CCOc1ccc(-n2cc(-c3ccccc3)c3c(SCc4cc(C)ccc4C)ncnc32)cc1`, the IC50 is more than 1 µM in experiment [1]; more than 1 µM in experiment [2]; more than 1 µM in experiment [3]; more than 2.5 µM at Proline--tRNA ligase; more than 1 µM in experiment [4]; more than 2.5 µM on Lysine--tRNA ligase. This compound also returned an IC50 in experiment [5] of more than 1 µM.

For the compound `CC1CCN(Cc2c(O)ccc3cc(-c4nc5ccccc5s4)c(=O)oc23)CC1`, the half-inhibitory concentration (IC50) in experiment [1] is more than 1 µM; in experiment [2], more than 1 µM; in experiment [3], more than 1 µM; on Proline--tRNA ligase, more than 2.5 µM; in experiment [4], more than 1 µM; on Lysine--tRNA ligase it was more than 2.5 µM. The half-maximal inhibitory concentration (IC50) in experiment [5] was more than 1 µM.

Regarding `Cc1ccc2cc3c(N)c4c(C)ccc(C)c4nc3nc2c1`, the half-maximal inhibitory concentration (IC50) in experiment [1] is more than 1 µM; in experiment [2], more than 1 µM; in experiment [3], more than 1 µM; on Proline--tRNA ligase, more than 2.5 µM; in experiment [4], more than 1 µM; at Lysine--tRNA ligase, more than 2.5 µM. The compound also had an IC50 in experiment [5] of more than 1 µM.

Take `COc1ccc(C2C(C(=O)Nc3cccc(OC)c3)c3ccccc3C(=O)N2C2CCCCC2)cc1` (stereo not drawn): the IC50 in experiment [1] is more than 1 µM; in experiment [2], more than 1 µM; in experiment [3] it was more than 1 µM; at Proline--tRNA ligase, more than 2.5 µM; in experiment [4], more than 1 µM; on Lysine--tRNA ligase, more than 2.5 µM. Further, the IC50 in experiment [5] is more than 1 µM.

Consider `CCOC(=O)c1cnc2c(C)cccc2c1Nc1ccc(C(C)=O)cc1`, for which the IC50 was more than 1 µM in experiment [1]; more than 1 µM in experiment [2]; more than 1 µM in experiment [3]; more than 2.5 µM on Proline--tRNA ligase; more than 1 µM in experiment [4]; more than 2.5 µM at Lysine--tRNA ligase. In experiment [5], this compound displayed an IC50 of more than 1 µM.

Consider `Cc1ccc(C2CC(C(F)(F)F)n3nc(C(=O)N4CCN(C(c5ccccc5)c5ccccc5)CC4)cc3N2)cc1` (stereo not drawn), for which the IC50 in experiment [1] was more than 1 µM; in experiment [2], more than 1 µM; in experiment [3] it was more than 1 µM; on Proline--tRNA ligase it was more than 2.5 µM; in experiment [4] it was more than 1 µM; at Lysine--tRNA ligase, more than 2.5 µM. Further, the IC50 in experiment [5] was more than 1 µM.

As to `COc1cccc(C(=O)NC(c2ccc(C)cc2)c2cc(Cl)c3cccnc3c2O)c1` (stereo not drawn), the IC50 in experiment [1] was more than 1 µM; in experiment [2], more than 1 µM; in experiment [3], more than 1 µM; on Proline--tRNA ligase, more than 2.5 µM; in experiment [4], more than 1 µM; on Lysine--tRNA ligase, more than 2.5 µM. In experiment [5], this compound yielded an IC50 of more than 1 µM.

Turning to `COc1ccc(-c2cc(=O)oc3c4c(ccc23)OCN(Cc2ccc(F)cc2)C4)cc1`, the IC50 was more than 1 µM in experiment [1]; more than 1 µM in experiment [2]; more than 1 µM in experiment [3]; more than 2.5 µM on Proline--tRNA ligase; more than 1 µM in experiment [4]; more than 2.5 µM on Lysine--tRNA ligase. In experiment [5], this compound registered a half-maximal inhibitory concentration (IC50) of more than 1 µM.

`CCOc1ccc2c(c1)CN(Cc1ccc(Cl)cc1)CO2`: the IC50 in experiment [1] was more than 1 µM; in experiment [2] it was more than 1 µM; in experiment [3], more than 1 µM; on Proline--tRNA ligase it was more than 2.5 µM; in experiment [4], more than 1 µM; at Lysine--tRNA ligase it was more than 2.5 µM. This compound also showed an IC50 in experiment [5] of more than 1 µM.

As to `COc1ccc(CCNC(=O)c2cc(S(=O)(=O)N3CC(C)CC(C)C3)ccc2Sc2ccc(F)cc2)cc1OC` (stereo not drawn), the IC50 is more than 1 µM in experiment [1]; more than 1 µM in experiment [2]; more than 1 µM in experiment [3]; more than 2.5 µM at Proline--tRNA ligase; more than 1 µM in experiment [4]; more than 2.5 µM on Lysine--tRNA ligase. The same compound displayed an IC50 in experiment [5] of more than 1 µM.

As for `CCOc1ccc(Nc2c3ccccc3nc3ccccc23)cc1`, the IC50 in experiment [1] was more than 1 µM; in experiment [2], more than 1 µM; in experiment [3], more than 1 µM; at Proline--tRNA ligase, more than 2.5 µM; in experiment [4], more than 1 µM; at Lysine--tRNA ligase, more than 2.5 µM. In experiment [5], this compound showed an IC50 of more than 1 µM.

As for `COc1ccccc1N1C(=N)SC(=Cc2ccc(OCc3ccccc3F)cc2)C1=O`, the IC50 in experiment [1] was more than 1 µM; in experiment [2] it was more than 1 µM; in experiment [3], more than 1 µM; on Proline--tRNA ligase, more than 2.5 µM; in experiment [4] it was more than 1 µM; on Lysine--tRNA ligase it was more than 2.5 µM. In experiment [5], this compound registered an IC50 of more than 1 µM.

For the origin of these results see ChEMBL document CHEMBL3301562, “MMV Box screening against Plasmodium falciparum protein kinases and aminoacyl tRNA synthetases”.
